Results as given in ChEMBL document CHEMBL1147843, “Synthesis of a novel C2-aryl pyrrolo[2,1-c][1,4]benzodiazepine-5,11-dione library: effect of C2-aryl substitution on cytotoxicity and non-covalent DNA binding” (2007).

Legend:
[1] = tested on: DNA; experiment: Binding affinity to calf thymus DNA at 20 uM after 4 hrs by thermal denaturation assay; assay type: nucleic-acid assay; settings: Bos taurus
[2] = tested on: DNA; experiment: Binding affinity to calf thymus DNA at 20 uM after 72 hrs by thermal denaturation assay; assay type: nucleic-acid assay; settings: Bos taurus
[3] = tested on: DNA; experiment: Binding affinity to calf thymus DNA at 20 uM after 18 hrs by thermal denaturation assay; assay type: nucleic-acid assay; settings: Bos taurus
[4] = tested on: NCI; experiment: Growth inhibition of human NCI 60 cells after 48 hrs by sulforhodamine B assay relative to control; assay type: functional
[5] = tested on: MCF7; experiment: Cytotoxicity against human MCF7 cells assessed as cell growth at 50 uM after 48 hrs by Alamar Blue assay relative to control; assay type: functional; settings: MCF7, 48 h, read-out: Activity
[6] = tested on: SF-268; experiment: Cytotoxicity against human SF268 cells assessed as cell growth at 50 uM after 48 hrs by Alamar Blue assay relative to control; assay type: functional; settings: SF-268, 48 h, read-out: Activity
[7] = tested on: NCI-H460; experiment: Cytotoxicity against human NCI-H460 cells assessed as cell growth at 50 uM after 48 hrs by Alamar Blue assay relative to control; assay type: functional; settings: NCI-H460, 48 h, read-out: Activity
[8] = tested on: A498; experiment: Growth inhibition of human A498 cells after 48 hrs by sulforhodamine B assay relative to control; assay type: functional; settings: A498, 48 h

Row | Structure (SMILES) | ΔTm [1] | ΔTm [2] | ΔTm [3] | GI50 [4] | growth at 50 µM [5] | growth at 50 µM [6] | growth at 50 µM [7] | GI50 [8]
1 | O=C1Nc2ccccc2C(=O)N2C=C(c3ccc(Cl)c(Cl)c3)C[C@@H]12 | 2.1 °C | 2.2 °C | 2.2 °C | 46.8 µM | 51% | 86% | 5% | > 50 µM
2 | O=C1Nc2ccccc2C(=O)N2C=C(c3cccc4ccccc34)C[C@@H]12 | 2.3 °C | 2.4 °C | 2.3 °C | 14.8 µM | 42% | 73% | 29% | 3.16 µM
3 | Cc1ccc2c(c1O)NC(O)C1CC(/C=C/C(N)=O)=CN1C2=O (stereo not drawn) [ANTHRAMYCIN] | – | – | – | 0.029 µM | – | – | – | 0.195 µM
4 | O=C1Nc2ccccc2C(=O)N2C=C(c3cccc([N+](=O)[O-])c3)C[C@@H]12 | 0.9 °C | 1 °C | 1 °C | – | – | – | – | –

More lines, main results first:

Row | ΔTm [1] | ΔTm [2] | ΔTm [3] | Structure (SMILES) | GI50 [4] | growth at 50 µM [5] | growth at 50 µM [6] | growth at 50 µM [7] | GI50 [8]
5 | 1.5 °C | 1.6 °C | 1.5 °C | O=C1Nc2ccccc2C(=O)N2C=C(c3ccccc3)C[C@@H]12 | – | – | – | – | –
6 | 2 °C | 2.1 °C | 2 °C | O=C1Nc2ccccc2C(=O)N2C=C(c3ccc(Br)cc3)C[C@@H]12 | 7.41 µM | 61% | 109% | 20% | 0.51 µM
7 | 1.5 °C | 1.5 °C | 1.4 °C | O=Cc1ccc(C2=CN3C(=O)c4ccccc4NC(=O)[C@@H]3C2)cc1 | – | – | – | – | –
8 | 1.1 °C | 1.1 °C | 1.1 °C | Nc1ccc(C2=CN3C(=O)c4ccccc4NC(=O)[C@@H]3C2)cc1 | – | – | – | – | –
